Reference: patent US11833144B2, “Treating autoimmune disease” (Mayo Foundation for Medical Education and Research, priority 2020, dated 2023)

Experiments:
murine B cells = experiment: Murine B cell proliferation (CellTrace Violet, cell number) and class switch to IgG1 in vitro; type: cell-based, mouse
Experimental: Mouse B cells were isolated from pooled single cell suspensions of spleen and peripheral lymph nodes using CD19 Microbeads (Miltenyi) or Mouse B cell Isolation Kit (Stemcell Technologies). B cells were stimulated with LPS (10 μg/mL; Sigma-Aldrich) and recombinant IL-4 cytokine (10 ng/mL; Tonbo Bioscience) with or without SCD inhibitor SSI-4, and proliferation was measured by dilution of CellTrace Violet proliferation dye (Thermo Fisher Scientific). B cells were also stimulated with anti-IgM (10 μg/mL; Jackson ImmunoResearch), anti-CD40 (10 μg/mL; BioXcell) and IL-4 (10 ng/mL; Tonbo Bioscience), or TLR ligand CpG (2.5 μM; IDT), recombinant IL-4 and IL-5 (10 ng/mL; Tonbo Bioscience) cytokines. To test the function of monounsaturated and saturated fatty acids, B cells were activated in presence of exogenous fatty acid-BSA conjugate. Palmitoleic acid (NU-CHEK PREP, INC), palmitic acid (NU-CHEK PREP, INC), stearic acid (NU-CHEK PREP, INC) were conjugated with fatty acid free BSA (Sigma-Aldrich) as described elsewhere (Wang et al., Immunity 35:871-882 (2011)). Human B cells were activated with CpG OND2006 (2.5 μM; IDT), recombinant human cytokine IL-10 ([…]; Peprotech), IL-15 (10 ng/mL; Peprotech), IL-4 (10 ng/mL; Biolegend), IL-2 (10 unit/mL) and anti-human CD40 (1 μg/mL; BioXcell). Human B cell proliferation was measured by ^3[H]-thymidine incorporation (1 μCi/mL) (American Radiolabeled Chemicals). For analysis of surface markers, cells were stained in PBS containing 1% (w/v) bovine serum albumin on ice for 30 minutes, with anti-IgG1 (RMG1-1, Biolegend), anti-CD19 (ID3, Biolegend) anti-B220 (RA3-6B2, Biolegend), anti-CD4 (GK1.5, Biolegend), anti-CD8 (53-6.7, Biolegend), anti-CD25 (PC16, Biolegend), anti-GL7 (GL-7, Biolegend), anti-CD95 (Jo2, BD Biosciences), anti-CD138 (281-2, Biolegend), anti-IgD (11-26c.2a, Biolegend), anti-PD-1 (J43, ThermoFisher), anti-IgM (II/41, ThermoFisher). Antigen specific GC response was detected with tetramer NP-phycoerythrin conjugated with PE (Biosearch Technologies). CXCR5 was stained with biotinylated anti-CXCR5 (2G8) followed by staining with streptavidin-conjugated PE (both from BD Biosciences). Cell viability was assessed using the Fixable Dye Ghost 510 (Tonbo Bioscience) or Annexin V cell apoptosis kit with 7-AAD (ThermoFisher) following the manufacturer's protocol. Phosflow staining for phospho-S6 (S235/236) was performed using Phosflow Fix/Perm kit (BD Biosciences). Mitochondrial potential was measured by staining with 20 nM TMRM (ThermoFisher) following manufacturer's instructions. Flow cytometry was performed on the LSR II, LSR Fortessa (BD Biosciences) or Attune NxT (ThermoFisher) cytometers, and analysis was performed using FlowJo software (Tree Star).

GFP-LC3 = experiment: Flow cytometry of GFP-LC3 in activated B cells from GFP-LC3 reporter mouse; type: cell-based; conditions: SSI-4 ex vivo
Experimental: For analysis of surface markers, cells were stained in PBS containing 1% (w/v) bovine serum albumin on ice for 30 minutes, with anti-IgG1 (RMG1-1, Biolegend), anti-CD19 (ID3, Biolegend) anti-B220 (RA3-6B2, Biolegend), anti-CD4 (GK1.5, Biolegend), anti-CD8 (53-6.7, Biolegend), anti-CD25 (PC16, Biolegend), anti-GL7 (GL-7, Biolegend), anti-CD95 (Jo2, BD Biosciences), anti-CD138 (281-2, Biolegend), anti-IgD (11-26c.2a, Biolegend), anti-PD-1 (J43, ThermoFisher), anti-IgM (II/41, ThermoFisher). Antigen specific GC response was detected with tetramer NP-phycoerythrin conjugated with PE (Biosearch Technologies). CXCR5 was stained with biotinylated anti-CXCR5 (2G8) followed by staining with streptavidin-conjugated PE (both from BD Biosciences). Cell viability was assessed using the Fixable Dye Ghost 510 (Tonbo Bioscience) or Annexin V cell apoptosis kit with 7-AAD (ThermoFisher) following the manufacturer's protocol. Phosflow staining for phospho-S6 (S235/236) was performed using Phosflow Fix/Perm kit (BD Biosciences). Mitochondrial potential was measured by staining with 20 nM TMRM (ThermoFisher) following manufacturer's instructions. Flow cytometry was performed on the LSR II, LSR Fortessa (BD Biosciences) or Attune NxT (ThermoFisher) cytometers, and analysis was performed using FlowJo software (Tree Star).

[1] = system: C57BL/6 mice receiving bm12 splenocytes; experiment: bm12 splenocyte transfer lupus (cGvHD) model fed SSI-4 chow; type: in vivo, mouse; conditions: SSI-4 chow 30 mg/kg
Experimental: MRL/MpJ-Fas^lpr mice and B6 (C)-H2-Ab1^bm12/KhEgJ (bm12) mice were purchased from the Jackson Laboratory. Six weeks old female MRL/MpJ-Fas^lpr mice were treated with control chow or SSI-4 chow (60 mg/kg, on a two-week SSI-4 chow/control-chow alternating schedule) ad libitum for 15 weeks. Proteinuria was measured using Albustix strips (Siemens). Kidney histology was done using routine H&E staining. Thirty million splenocytes from 8 weeks old B6 (C)-H2-Ab1^bm12/KhEgJ (bm12) mice were transferred into C57BL/6 mice intraperitoneally. Mice were fed with control chow or SSI-4 chow (30 mg/kg, on an one-week SSI-4 chow/control-chow alternating schedule) ad libitum for 8 weeks.
For analysis of surface markers, cells were stained in PBS containing 1% (w/v) bovine serum albumin on ice for 30 minutes, with anti-B220 (RA3-6B2, Biolegend), anti-CD4 (GK1.5, Biolegend), anti-CD138 (281-2, Biolegend), anti-PD-1 (J43, ThermoFisher). CXCR5 was stained with biotinylated anti-CXCR5 (2G8) followed by staining with streptavidin-conjugated PE (both from BD Biosciences). Cell viability was assessed using the Fixable Dye Ghost 510 (Tonbo Bioscience) following the manufacturer's protocol. Flow cytometry was performed on the LSR II, LSR Fortessa (BD Biosciences) or Attune NxT (ThermoFisher) cytometers, and analysis was performed using FlowJo software (Tree Star).

[2] = LPS/IL-4 activated, fatty acid-BSA conjugate, no inhibitor

| Compound | rescue of proliferation defects caused by SCD inhibition (murine B cells; 100 nM SSI-4 plus exogenous 100 μM OA, 3 days, LPS/IL-4/IL-5, anti-IgM/anti-CD40/IL-4 or CpG/IL-4/IL-5) | rescue of proliferation and IgG1 class switch in SCD1/2 deficient B cells (murine B cells; B cells from Scd1 and Scd2 deficient mice, LPS/IL-4) | rescue of proliferation and IgG1 class switch upon SSI-4 treatment (murine B cells; LPS/IL-4, SSI-4 with exogenous fatty acid) | B cell proliferation, exogenous fatty acid alone (murine B cells; [2]) | IgG1 class switch, exogenous fatty acid alone (murine B cells; [2]) | IgG1 class switch (murine B cells; LPS/IL-4, SCD inhibitor SSI-4 alone) | proliferation of mouse B cells (CTV dilution) (murine B cells; LPS/IL-4 activated, SCD inhibitor alone) | GFP-LC3 expression (MFI) (GFP-LC3) | generation of CXCR5+PD-1+ follicular helper T cells [1] | generation of IgD-CD138+ plasma cells [1] | serum anti-dsDNA autoantibody level ([1]; one-week alternating schedule, 8 weeks, ELISA) |
| --- | --- | --- | --- | --- | --- | --- | --- | --- | --- | --- | --- |
| CCCCCCCC/C=C\CCCCCCCC(=O)O [OA, oleic acid] | able to rescue the proliferation defects | fully restored | fully restore both parameters | further enhanced | further enhanced |  |  |  |  |  |  |
| CNC(=O)c1ccnc(NC(=O)N2CCC(Oc3ccccc3Cl)CC2)c1 [SSI-4, 2-{[4-(2-Chlorophenoxy)piperidine-1-carbonyl]amino}-N-methylpyridine-4-carboxamide] |  |  |  |  |  | strongly suppressed | capable of inhibiting B cell proliferation | higher LC3 expression | reduced | reduced | reduced |
